Source: patent EP2487185A1, “Hexapeptide with improved activity in the repair of cellular DNA of dermal cells” (Clinuvel Pharmaceuticals Limited, priority 2011, dated 2012)
Non-standard residues stand in square brackets, D forms with d. Nle = CCCC[C@H](N)C(=O)O

Assays:
Type in all cases: cell-based, human
melanocytes strain 105c = assay: cAMP levels (125I radioimmunoassay), dose-response; details: 45 min, 0.1 mM IBMX
Experimental: Dose-response experiments were carried out on three melanocytic strains, namely strains 1513c, 1505b and 105c melanocytes were treated with 1 pM-10 nM CUV9900 or NDP-MSH, or with 0.1-10 nM MSH for 45 minutes in the presence of 0.1 mM isobutyl methylxanthine (IBMX). The results obtained from strain 1513c are shown in Fig. 3, the results obtained from strain 1505b are shown in Fig. 5a and the results obtained from strain 105c are shown in Fig. 5b. The strains 1505b and 1513c were obtained from the same human adult while the strain 105c was obtained from another human adult. Cyclic AMP is the second messenger for the melanocortin-1 receptor, and assessment is usually performed indicating cellular activity reflective of melanogenesis. Cyclic AMP levels were determined using ^125I-labeled radioimmunoassay kit (Perkin Elmer, Waltham, MA), in human melanocytes that were treated with 0 (control), 0.1-10.0 nM α-MSH, or 0.001-10 nM NDP-MSH or 0.001-10.0 nM CUV 9900 for 45 min. in the presence of 0.1 mM IBMX, a phosphodiesterase inhibitor to prevent cAMP degradation. Triplicate wells were included in each group, and duplicate samples from each well were assayed for cAMP levels. Each data point is the mean percent of control of 6 determinations/group ±S.E.

strains 1505b and 1513c [1] = assay: Cell proliferation as a measure of stability, overall; details: all experiments on both strains 1505b and 1513c
Experimental: (§1) With continued reference to Figs. 7, 8 and 9, to determine the stability of CUV9900 versus that of NDP-MSH and α-MSH, melanocytes were treated with 1 nM of each peptide, namely with CUV9900, NDP-MSH and α-MSH, for a total of 6 days, or with 1 nM peptides that were incubated for 5 hours at 37 °C prior to addition to the cultures, every other day, for a total of 6 days. Tyrosinase activity was measured at the end of treatment. In the experiments, cell number represents the mean percent of control of 3 determinations/ group ±SE, and tyrosinase activity data represent the mean percent of control of 6 determinations ±S.E. It should be noted that for the sake of reproducibility the experiment of strain 1513c of Fig. 9 was performed once more 6 months later than the experiment of Fig. 7.
Peptides were incubated at 37 degrees Celsius for 5 hours and then split into groups. Cell proliferation was a measure of stability, whereby the experiments on strain 1513c were divided in period 1 and 2 under standard conditions.

strains 1505b and 1513c [2] = assay: Tyrosinase activity as a measure of stability, overall
Experimental: as §1
Melanocytes were treated for 3 days with the designated concentrations of CUV9900, NDP-MSH, or MSH, then maintained in absence of peptides for 4 days. Tyrosinase activity was determined 3 days after treatment.

melanocytic strain 10.3c = assay: UV-induced generation of hydrogen peroxide (luminol luminescence); details: 1 nM, 105 mJ/cm^2 UV, 0, 30 and 45 minutes after UV
Description: With reference to Figs. 10 and 11, melanocytes were irradiated with a bank of FS 20 lamps, with 75% emission in the UVB, and 25% emission in the UVA spectra, with peak emission at 313 nm wavelength. Any emission of UVC rays from the UV source (FS 20 lamps) was blocked by Kodacel filter. Prior to irradiation, the culture medium was replaced by PBS, which was removed after UV exposure, and fresh medium added.
Melanocytes were irradiated with 105 mJ/cm^2 UV, and treated immediately while in PBS with 0, 1 nM α-MSH or 1 nM CUV9900. Generation of hydrogen peroxide, representative of reactive oxygen species (ROS), was determined by measuring the luminescence of luminol at 0, 30, and 45 min after UV exposure. Triplicate dishes were included in each group, and duplicate samples from each dish were used for measurement of hydrogen peroxide at each time point. Each data point represents the mean of 6 determinations/group ±S.E.

[3] = test system: lightly pigmented strain 1563c and strain 102b; assay: Ultrastructural visualization of DOPA-stained HM (electron microscopy); details: 0.1 nM or 1 nM CUV9900 or 1 nM MSH; strains 1563c and 102b
Experimental: With reference to Figs. 14 and 15, two melanocytic strains, a lightly pigmented strain 1563c of Fig. 14 and strain 102b of Fig. 15 were plated in 4-well chamber slides and treated […] with either 0.1 nM or 1 nM CUV9900 or 1 nM MSH for a total of 6 days. Cells were processed for electron microscopy in the presence or absence of histochemical reaction with DOPA. Microtome sections were analyzed in a JEOL JEM-1230 transmission electron microscope and photomicrographs (15,000 X) of the perinuclear area and dendrites were taken for each experimental group.

melanocyte strain 1505b = assay: Tyrosinase activity, dose-response, 6 days treatment
Experimental: Dose-response experiments were carried out on another adult strain 102b which is shown in Fig. 6 and on the strain 1505b which is a melanocyte strain: melanocytes were treated with 0.001-10 nM CUV9990 or NDP-MSH, or 0.1-10 nM MSH for a total of 6 days, with the culture medium changed and fresh peptide added every other day. Cell numbers as well as tyrosinase activity were then determined. Tyrosinase activity was calculated first at activity/10^6 cells, and then as % of control. Twenty-four hours prior the end of the experiment, melanocytes received ^3H-tyrosinase (0.7 µCi/ml medium). The conditioned medium from each dish was collected to be assayed for tyrosinase activity, and the cell numbers were determined using a Coulter Counter. Triplicate dishes were included in each group, and duplicate samples from each dish were assayed for tyrosinase activity. Each data point is the mean percent of control of 6 determinations/group ±S.E.

Ac-Nle-Glu His-D-Phe-Arg-Trp-NH2 (Ac-[Nle]EH[dF]RW-NH2; SMILES CCCC[C@H](NC(C)=O)C(=O)N[C@@H](CCC(=O)O)C(=O)N[C@@H](Cc1c[nH]cn1)C(=O)N[C@H](Cc1ccccc1)C(=O)N[C@@H](CCCNC(=N)N)C(=O)N[C@@H](Cc1c[nH]c2ccccc12)C(N)=O) [CUV9900, hexapeptide, alpha-MSH analogue]
elevation of cAMP, comparison with NDP (melanocytes strain 105c; 0.01 nM and 0.1 nM): less elevation of cAMP in comparison to 0.01 nM and 0.1 nM NDP
cAMP, comparison with MSH (melanocytes strain 105c; 0.1 nM, 1 nM and 10 nM): significantly higher than 0.1 nM, 1 nM and 10 nM MSH
more cell proliferation and stability than MSH (strains 1505b and 1513c [1]): 2.9%
more cell proliferation and stability than NDP-MSH (strains 1505b and 1513c [1]): 4.0%
superior tyrosinase activity in comparison to MSH (strains 1505b and 1513c [2]): 42.5%
superior tyrosinase activity in comparison to NDP-MSH (strains 1505b and 1513c [2]): 19.8%
UV-induced hydrogen peroxide generation (melanocytic strain 10.3c): significant reduction of UV-induced hydrogen peroxide generation
melanosomes, electron microscopy [3]: increased mature (stage IV) melanosomes in the perinuclear area and more so in dendrites
effect on tyrosinase activity, comparison with NDP-MSH (melanocyte strain 1505b): equivalent to that of NDP-MSH
minimal effective dose (tyrosinase activity) (melanocyte strain 1505b; 6 days treatment): 1 pM
